Bounds are passed on as bounds.

In general, IC50 refers to the midpoint of a concentration-inhibition curve.

This assay addresses T1, Farnesyl pyrophosphate synthase (Homo sapiens, UniProt P14324).
T1 sequence (P14324 whole entry): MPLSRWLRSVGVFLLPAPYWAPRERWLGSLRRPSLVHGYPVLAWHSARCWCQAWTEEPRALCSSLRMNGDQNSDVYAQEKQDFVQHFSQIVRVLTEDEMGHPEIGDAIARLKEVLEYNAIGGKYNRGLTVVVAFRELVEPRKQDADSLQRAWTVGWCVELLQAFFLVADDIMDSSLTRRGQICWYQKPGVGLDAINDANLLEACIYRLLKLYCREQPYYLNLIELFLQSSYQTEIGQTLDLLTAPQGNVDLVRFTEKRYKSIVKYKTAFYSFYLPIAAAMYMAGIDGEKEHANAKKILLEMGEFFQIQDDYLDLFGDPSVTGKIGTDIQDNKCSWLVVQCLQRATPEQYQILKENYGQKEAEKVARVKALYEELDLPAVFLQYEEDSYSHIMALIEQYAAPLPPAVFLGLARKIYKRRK
Put plainly: Inhibition of N-terminal His-tagged human recombinant FPPS expressed in Escherichia coli BL21 (DE3) using GPP and [3H]-IPP as substrate preincubated for 10 mins before substrate addition measured after 8 mins by liquid scintillation counting.
`Cc1ccc(-c2cc3c(NCP(=O)(O)O)ncnc3s2)cc1`: the IC50 was found to be 5000 nM. As for `Cc1ccc(-c2cc3c(NC(c4ccccc4)P(=O)(O)O)ncnc3s2)cc1Cl` (stereo unspecified), the figure is 1600 nM. `Cc1ccc(-c2sc3ncnc4c3c2COP(=O)(O)CCC4)cc1`: the half-inhibitory concentration (IC50) was no less than 100000 nM. As for `Cc1ccc(-c2cc3c(NC(Cc4cccc(F)c4)P(=O)(O)O)ncnc3s2)cc1Cl` (stereo unspecified), the figure is 860 nM.

On to `Cc1ccc(-c2cc3c(NC(Cc4cccc(F)c4)P(=O)(O)O)ncnc3s2)cc1F` (stereo unspecified), for which the half-maximal inhibitory concentration (IC50) is 1500 nM.

As to `COc1cc(C)c(Cl)cc1-c1cc2c(NCP(=O)(O)O)ncnc2s1`, the half-maximal inhibitory concentration (IC50) came out at 8800 nM.

Consider `Cc1ccc(-c2cc3c(NC(c4ccccc4)P(=O)(O)O)ncnc3s2)cc1` (stereo unspecified), for which the half-inhibitory concentration (IC50) was 4800 nM. With `COc1cc(C)c(Cl)cc1-c1cc2c(NC(Cc3ccccc3)P(=O)(O)O)ncnc2s1` (stereo unspecified), the IC50 is 4600 nM.

`COc1cc(C)c(F)cc1-c1cc2c(NC(Cc3cccc(F)c3)P(=O)(O)O)ncnc2s1` (stereo unspecified): the IC50 turned out to be 870 nM. As to `Cc1ccc(-c2cc3c(NC(c4ccc5c(c4)CCO5)P(=O)(O)O)ncnc3s2)cc1` (stereo unspecified), the IC50 is 3000 nM. For the compound `Cc1ccc(-c2cc3c(NC(Cc4ccccc4)P(=O)(O)O)ncnc3s2)cc1` (stereo unspecified), the 50% inhibitory concentration (IC50) was 1400 nM. In the case of `O=P(O)(O)CNc1ncnc2sccc12`, the IC50 was greater than 100000 nM. As for `Cc1ccc(-c2sc3ncnc(NC(Cc4ccccc4)P(=O)(O)O)c3c2C)cc1` (stereo unspecified), the figure is 2600 nM; as for `Cc1ccc(-c2cc3c(NC(CC4CCC4)P(=O)(O)O)ncnc3s2)cc1` (stereo unspecified), 2800 nM. With `COc1ccc(F)cc1-c1cc2c(NC(Cc3cccc(F)c3)P(=O)(O)O)ncnc2s1` (stereo unspecified), the IC50 is 1000 nM. As to `Cc1ccc(-c2cc3c(NC(Cc4ccccc4)P(=O)(O)O)ncnc3s2)cc1Cl` (stereo unspecified), the half-inhibitory concentration (IC50) worked out at 2300 nM. Take `COc1cc(C)c(Cl)cc1-c1cc2c(NC(c3ccccc3)P(=O)(O)O)ncnc2s1` (stereo unspecified): the IC50 was determined as 8400 nM.

Turning to `Cc1ccc(-c2cc3c(N[C@@H](Cc4ccccc4)P(=O)(O)O)ncnc3s2)cc1`, the half-maximal inhibitory concentration (IC50) came to 4000 nM. As for `Cc1ccc(-c2cc3c(NC(Cc4cccc(F)c4)P(=O)(O)O)ncnc3s2)cc1` (stereo unspecified), the figure is 1100 nM; as for `COc1cc(C)c(F)cc1-c1cc2c(NCP(=O)(O)O)ncnc2s1`, 4600 nM. Regarding `Cc1ccc(-c2sc3ncncc3c2CP(=O)(O)O)cc1`, the half-inhibitory concentration (IC50) is no less than 100000 nM. Turning to `Cc1ccc(-c2cc3c(N[C@@H](Cc4ccccc4)C(=O)NP(=O)(O)O)ncnc3s2)cc1`, the IC50 was 3700 nM. The result for `COc1cc(C)c(F)cc1-c1cc2c(NC(Cc3ccccc3)P(=O)(O)O)ncnc2s1` (stereo unspecified) reads 1600 nM. As for `Cc1ccc(-c2sc3ncnc(NCP(=O)(O)O)c3c2C)cc1`, the figure is 10000 nM; as for `Cc1ccc(-c2cc3c(N[C@H](Cc4ccccc4)P(=O)(O)O)ncnc3s2)cc1`, 1000 nM; as for `Cc1ccc(-c2cc3c(NC(CC4CCCCC4)P(=O)(O)O)ncnc3s2)cc1` (stereo unspecified), 1600 nM.

Source of the values: ChEMBL document CHEMBL4004852, “Pharmacophore Mapping of Thienopyrimidine-Based Monophosphonate (ThP-MP) Inhibitors of the Human Farnesyl Pyrophosphate Synthase” (J Med Chem, 2017).
